The source of these data is patent US6719996B2, “Galenic composition for low bioavailability medicaments” (Hoffmann-La Roche Inc., priority 2000, dated 2004).

Some results are limits rather than exact numbers.

This data set is described as follows: Solubility in cocoa butter/lecithin mixtures. As to conditions: oil or lipid. It is filed as physicochemical.

Usually solubility stands for the concentration that dissolves in the medium under given conditions. `Cc1ccccc1-c1cc(N2CCOCC2)ncc1N(C)C(=O)C(C)(C)c1cc(C(F)(F)F)cc(C(F)(F)F)c1` [2-(3,5-bis-trifluoromethyl-phenyl)-N-methyl-N-(6-morpholin-4-yl-4-o-tolyl-pyridin-3-yl)-isobutyramide]: the solubility is less than 15 mg/mL.
